# Patent US20110009447A1, “Substituted Benzoic Acid Amides and Use thereof for the Inhibition of Angiogenesis” (priority 2001, published 2011)
# Target: VEGFR I (FLT) (Homo sapiens, UniProt P17948)
# Test: Inhibition of FLT-1 kinase activity (33P-ATP, poly-(Glu4Tyr) phosphocellulose filter assay)
# Assay type: biochemical
# Conditions: not given
# Protocol: (§1) • Stock solutions • Stock solution A: 3 mmol of ATP in water, pH 7.0 (−70° C.) • Stock solution B: g-33P-ATP 1 mCi/100 μl • Stock solution C: poly-(Glu4Tyr) 10 mg/ml in water Solution for dilutions • Substrate solvent: 10 mmol of DTT, 10 mmol of manganese chloride, 100 mmol of magnesium chloride • Enzyme solution: 120 mmol of tris/HCl, pH 7.5, 10 μM of sodium vanadium oxide
# Then, it is washed several times in 0.1 M phosphoric acid. The filter paper is dried, coated with Meltilex and measured in a microbeta counter.
# Sequence of VEGFR I (FLT) (P17948 27-1338, species assumed): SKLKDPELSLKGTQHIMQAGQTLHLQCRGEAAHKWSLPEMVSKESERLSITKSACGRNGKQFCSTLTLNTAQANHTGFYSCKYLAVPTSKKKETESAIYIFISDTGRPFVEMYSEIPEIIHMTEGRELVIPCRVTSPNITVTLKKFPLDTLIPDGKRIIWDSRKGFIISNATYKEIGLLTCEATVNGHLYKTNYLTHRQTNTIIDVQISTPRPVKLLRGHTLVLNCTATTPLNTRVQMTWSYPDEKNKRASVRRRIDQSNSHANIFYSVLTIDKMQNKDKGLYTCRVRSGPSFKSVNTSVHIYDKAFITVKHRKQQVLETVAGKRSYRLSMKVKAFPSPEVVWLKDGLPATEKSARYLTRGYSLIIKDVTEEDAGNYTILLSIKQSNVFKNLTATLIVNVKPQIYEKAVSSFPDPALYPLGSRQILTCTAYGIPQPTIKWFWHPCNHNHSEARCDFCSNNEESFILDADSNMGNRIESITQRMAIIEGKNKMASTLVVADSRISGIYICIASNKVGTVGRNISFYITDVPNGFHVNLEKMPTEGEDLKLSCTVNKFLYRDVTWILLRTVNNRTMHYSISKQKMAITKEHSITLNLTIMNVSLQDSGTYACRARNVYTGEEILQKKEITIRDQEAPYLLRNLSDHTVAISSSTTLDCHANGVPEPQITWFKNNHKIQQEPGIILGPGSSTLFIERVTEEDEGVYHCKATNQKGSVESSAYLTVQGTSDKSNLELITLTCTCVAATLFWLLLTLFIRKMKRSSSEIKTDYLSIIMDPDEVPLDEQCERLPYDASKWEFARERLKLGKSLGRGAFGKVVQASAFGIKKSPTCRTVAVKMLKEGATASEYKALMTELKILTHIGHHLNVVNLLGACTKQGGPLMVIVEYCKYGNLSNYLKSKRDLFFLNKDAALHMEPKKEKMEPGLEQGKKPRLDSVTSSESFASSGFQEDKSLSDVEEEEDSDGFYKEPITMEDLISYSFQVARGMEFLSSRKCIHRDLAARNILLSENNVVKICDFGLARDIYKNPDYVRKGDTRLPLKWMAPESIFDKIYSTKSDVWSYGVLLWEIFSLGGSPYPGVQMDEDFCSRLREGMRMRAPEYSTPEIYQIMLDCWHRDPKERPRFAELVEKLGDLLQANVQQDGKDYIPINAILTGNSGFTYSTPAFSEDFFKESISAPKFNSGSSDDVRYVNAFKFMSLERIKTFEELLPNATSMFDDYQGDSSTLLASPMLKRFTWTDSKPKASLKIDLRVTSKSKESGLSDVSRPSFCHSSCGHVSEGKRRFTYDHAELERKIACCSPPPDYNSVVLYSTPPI
row,SMILES,IC50
1,CCCc1ccc(NC(=O)c2ccccc2CCc2ccncc2)cc1 [Example 1.1],200 nM

# Same assay, conditions: FLT-1 kinase, poly-(Glu4Tyr) substrate, 10 minutes at room temperature; read-out: kinase inhibition IC50 VEGFR I (FLT)
row,SMILES,IC50
1,COc1ccc(/C=C\c2ccccc2C(=O)Nc2ccc(Cl)cc2)cc1 [Example 1.57],200 nM
2,COc1ccc(/C=C\c2ccccc2C(=O)Nc2cnc3ccccc3c2)cc1 [Example 1.60],2000 nM
3,COc1ccc(CCc2ccccc2C(=O)Nc2cnc3ccccc3c2)cc1 [Example 1.89],2000 nM
4,CCCCCCCNC(=O)c1ccccc1/C=C\c1ccc(OC)cc1 [Example 1.64],200 nM
5,O=C(NCC1CCCCC1)c1ccccc1CCc1ccncc1 [Example 1.31],200 nM
6,O=C(Nc1ccc(Cl)cc1)c1cccc(C#Cc2cccnc2)c1 [Example 1.54],50 nM

# Target: VEGFR II (KDR) (Homo sapiens, UniProt P35968)
# Sequence (P35968 20-1356, species assumed): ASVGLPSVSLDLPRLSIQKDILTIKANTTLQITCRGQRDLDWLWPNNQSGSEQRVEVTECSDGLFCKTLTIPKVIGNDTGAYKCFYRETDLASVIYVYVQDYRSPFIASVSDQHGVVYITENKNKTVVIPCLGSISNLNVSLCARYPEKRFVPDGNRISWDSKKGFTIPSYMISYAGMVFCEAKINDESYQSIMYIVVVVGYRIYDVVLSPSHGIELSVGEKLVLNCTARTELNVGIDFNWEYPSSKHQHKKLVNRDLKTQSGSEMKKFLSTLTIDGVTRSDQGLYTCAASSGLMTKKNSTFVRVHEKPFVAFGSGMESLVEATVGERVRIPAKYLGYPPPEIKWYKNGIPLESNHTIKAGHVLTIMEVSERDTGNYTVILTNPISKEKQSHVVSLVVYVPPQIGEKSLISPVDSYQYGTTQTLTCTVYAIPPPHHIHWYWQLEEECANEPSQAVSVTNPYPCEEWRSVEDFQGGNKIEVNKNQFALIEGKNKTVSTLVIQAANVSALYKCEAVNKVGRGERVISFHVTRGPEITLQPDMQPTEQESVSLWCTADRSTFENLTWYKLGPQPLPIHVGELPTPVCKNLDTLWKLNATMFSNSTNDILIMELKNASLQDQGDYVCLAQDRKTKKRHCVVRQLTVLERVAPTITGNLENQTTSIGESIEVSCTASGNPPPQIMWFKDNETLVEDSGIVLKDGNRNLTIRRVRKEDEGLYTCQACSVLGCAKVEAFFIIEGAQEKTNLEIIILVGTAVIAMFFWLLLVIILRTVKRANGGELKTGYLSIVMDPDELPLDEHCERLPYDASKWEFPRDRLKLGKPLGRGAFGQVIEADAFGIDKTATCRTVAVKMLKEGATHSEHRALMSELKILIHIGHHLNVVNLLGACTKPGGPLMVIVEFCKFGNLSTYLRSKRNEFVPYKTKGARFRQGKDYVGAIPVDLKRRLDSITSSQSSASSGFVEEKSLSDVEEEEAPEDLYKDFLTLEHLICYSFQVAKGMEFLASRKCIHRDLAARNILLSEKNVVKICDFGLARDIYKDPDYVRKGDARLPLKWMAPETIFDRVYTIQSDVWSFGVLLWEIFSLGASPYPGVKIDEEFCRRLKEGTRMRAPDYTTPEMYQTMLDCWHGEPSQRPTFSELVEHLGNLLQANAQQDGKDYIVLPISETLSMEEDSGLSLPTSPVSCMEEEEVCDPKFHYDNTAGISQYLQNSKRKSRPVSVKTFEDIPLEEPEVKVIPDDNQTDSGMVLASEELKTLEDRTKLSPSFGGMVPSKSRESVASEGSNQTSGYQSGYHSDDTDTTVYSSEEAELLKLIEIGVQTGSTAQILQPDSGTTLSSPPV
# Test: Inhibition of KDR kinase activity (33P-ATP, poly-(Glu4Tyr) phosphocellulose filter assay)
# Assay type: biochemical
# Conditions: poly-(Glu4Tyr) substrate, 10 minutes at room temperature
# Protocol: as §1
# In a microtiter plate (without protein binding) that tapers to a point, 10 μl of substrate mix (10 μl of volume of ATP stock solution A+25 μCi of g-33P-ATP (about 2.5 μl of stock solution B)+30 μl of poly-(Glu4Tyr) stock solution C+1.21 ml of substrate solvent), 10 μl of inhibitor solution (substances corresponding to the dilutions, 3% DMSO in substrate solvent as a control) and 10 μl of enzyme solution (11.25 μg of enzyme stock solution (KDR or FLT-1 kinase) are added at 4° C. in 1.25 ml of enzyme solution (dilute). It is thoroughly mixed and incubated for 10 minutes at room temperature. Then, 10 μl of stop solution (250 mmol of EDTA, pH 7.0) is added, mixed, and 10 μl of the solution is transferred to a P 81 phosphocellulose filter. Then, it is washed several times in 0.1 M phosphoric acid. The filter paper is dried, coated with Meltilex and measured in a microbeta counter.
# The IC50 values are determined from the inhibitor concentration, which is necessary to inhibit the phosphate incorporation to 50% of the uninhibited incorporation after removal of the blank reading (EDTA-stopped reaction).
row,SMILES,IC50
1,COc1ccc(/C=C\c2ccccc2C(=O)Nc2ccc(Cl)cc2)cc1 [Example 1.57],200 nM
2,CCCc1ccc(NC(=O)c2ccccc2CCc2ccc(OC)cc2)cc1 [Example 1.67],5000 nM
3,COc1ccc(/C=C\c2ccccc2C(=O)Nc2cnc3ccccc3c2)cc1 [Example 1.60],500 nM
4,COc1ccc(CCc2ccccc2C(=O)Nc2cnc3ccccc3c2)cc1 [Example 1.89],300 nM
5,CCCc1ccc(NC(=O)c2ccccc2CCc2ccncc2)cc1 [Example 1.1],200 nM
6,CCCCCCCNC(=O)c1ccccc1/C=C\c1ccc(OC)cc1 [Example 1.64],300 nM
7,O=C(NCC1CCCCC1)c1ccccc1CCc1ccncc1 [Example 1.31],400 nM
8,O=C(Nc1ccc(Cl)cc1)c1cccc(C#Cc2cccnc2)c1 [Example 1.54],500 nM

# Tested on: not given
# Test: not given
# Conditions: not given
row,SMILES,melting point
1,COc1ccc(/C=C\c2ccccc2C(=O)Nc2ccc(Cl)cc2)cc1 [Example 1.57],137.9 °C
2,CCCc1ccc(NC(=O)c2ccccc2CCc2ccc(OC)cc2)cc1 [Example 1.67],113.7 °C
3,O=C(NCC1CCCCC1)c1ccccc1CCc1ccncc1 [Example 1.31],105 to 107 °C
4,O=C(Nc1ccc(Cl)cc1)c1cccc(C#Cc2cccnc2)c1 [Example 1.54],179 °C
